According to paper PMC11597207, “Synthesis and Anti-Inflammatory and Analgesic Potentials of Ethyl 2-(2,5-Dioxo-1-Phenylpyrrolidin-3-yl)-2-Methylpropanoate” (Pharmaceuticals, 2024):

What was measured:
mice = test: Hot plate antinociceptive test; assay type: in vivo; details: dose 5 mg/kg
[1] = tested on: carrageenan-induced paw edema; test: Carrageenan-induced paw edema model; assay type: in vivo; details: mice, dose 10 mg/kg
Description: The anti-inflammatory activity of MAK01 was evaluated through a carrageenan-induced paw edema model. The mice, with weights ranging from 25 to 30 g, were separated into five distinct groups, these being Vehicle Group 1, Aspirin Group 2, and different concentrations of MAK01 in Groups 3–5. Each of these groups comprised five mice. The negative control group in the experiment received a specific solution comprising normal saline, DMSO, and Tween-80. The mixture contained 94% normal saline, 5% DMSO, and 1% Tween-80, delivered at a concentration of 10 mL per kg. In contrast, the positive control group in the assay received the comparator aspirin at a precise dose of 10 mg/kg. The test samples were administered at doses of 10 mg/kg, 20 mg/kg, and 30 mg/kg, given intra-peritoneally. After 30 min, a 2% carrageenan suspension (0.2 mL) was administered to each mouse in every group via a subcutaneous injection in the hind paw. In the experiment, a plethysmometer was used to precisely measure inflammation and edema. These measurements were taken at multiple time points both prior to and following the carrageenan administration. Specifically, the readings were recorded at 1, 2, 3, 4, and 5 h intervals to monitor the progress of the inflammatory response and paw swelling. These obtained results were then compared against the outcomes from the negative control group. The gathered data from the experiment, relating to the impact of the newly synthesized compounds on paw edema, were carefully processed to derive the percentage of edema inhibition. Using the below equation, the percent inhibition was calculated. % Inhibition=Ce−Te/Ce×100
In the formula, ‘Ce’ refers to the control group paw edema volume, while ‘Te’ denotes test groups’ paw edema volume.

5-LOX = target: T1, 5-LOX (Homo sapiens, UniProt P09917); test: 5-LOX inhibitory assay; assay type: biochemical; details: read-out: 5-LOX percent inhibition
T1 construct: purchased Cayman Chemical Batch No.: A3457
T1 sequence (P09917 1-674): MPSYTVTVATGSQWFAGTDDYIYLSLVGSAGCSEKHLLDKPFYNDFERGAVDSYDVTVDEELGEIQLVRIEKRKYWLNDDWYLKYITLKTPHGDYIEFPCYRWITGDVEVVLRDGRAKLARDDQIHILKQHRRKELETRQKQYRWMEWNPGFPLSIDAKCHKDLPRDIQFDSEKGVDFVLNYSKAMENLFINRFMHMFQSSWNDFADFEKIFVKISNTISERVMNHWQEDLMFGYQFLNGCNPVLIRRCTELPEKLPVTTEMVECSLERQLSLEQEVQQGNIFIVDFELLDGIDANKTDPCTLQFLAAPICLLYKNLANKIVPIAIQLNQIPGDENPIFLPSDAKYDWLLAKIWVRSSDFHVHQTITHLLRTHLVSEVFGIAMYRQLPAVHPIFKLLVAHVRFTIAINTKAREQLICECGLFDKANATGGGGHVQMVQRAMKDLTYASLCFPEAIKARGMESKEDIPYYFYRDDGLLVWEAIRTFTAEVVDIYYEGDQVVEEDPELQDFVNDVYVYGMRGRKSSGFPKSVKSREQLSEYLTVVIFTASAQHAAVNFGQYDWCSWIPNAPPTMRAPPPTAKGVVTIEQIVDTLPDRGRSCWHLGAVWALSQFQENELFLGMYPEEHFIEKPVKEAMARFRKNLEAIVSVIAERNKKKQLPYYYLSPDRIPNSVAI
Description: The activity of MAK01 against the 5-LOX enzyme was investigated using a human recombinant form of 5-LOX [47]. To begin the 5-LOX activity assay, a 10,000 U/mL solution of 5-LOX was prepared in a phosphate buffer with a pH of 6.3. A range of concentrations of the test compounds in the same buffer were prepared for assay. As a substrate for 5-LOX, linoleic acid (80 mM) was diluted with ethyl alcohol and used in the assay. The experiment involved mixing the same amount of both the enzyme solution and the test sample, such as mixing 0.25 mL 5-LOX with 0.25 mL of the compound, both dissolved in buffer. The mixing was followed by incubation at 25 °C for 5 to 10 min. Subsequently, 0.10 mL of the linoleic acid solution was added and allowed to incubate for another 5 min. The absorbance was measured using a UV–visible spectrophotometer at a wavelength of 234 nm, and the percent inhibition was calculated based on the absorbance readings. The same procedure was repeated for different concentrations of the test samples. Zileuton, as a reference drug, was used in comparisons. Using the following formula, the percent inhibition for each sample was calculated: % Inhibition=Abs. of Control−Abs. of Sample/Abs. of Control×100

## CN1CC[C@]23c4c5ccc(O)c4O[C@H]2[C@@H](O)C=C[C@H]3[C@H]1C5 [Morphine, morphine, reference compound]
mice; 30 min
  Latency Time (Seconds) on Hot Plate: 13.83 ± 0.63 s
mice; 60 min
  Latency Time (Seconds) on Hot Plate: 13.52 ± 0.23 s
mice; 90 min
  Latency Time (Seconds) on Hot Plate: 13.29 ± 0.78 s
mice; 120 min
  Latency Time (Seconds) on Hot Plate: 12.92 ± 0.56 s
mice; 150 min
  Latency Time (Seconds) on Hot Plate: 12.59 ± 0.41 s

## CC(=O)Oc1ccccc1C(=O)O [Aspirin, aspirin, reference compound]
[1]; 1 h
  Paw Edema Inhibition in Percent: 47.46 ± 0.80%
[1]; 2 h
  Paw Edema Inhibition in Percent: 54.42 ± 1.10%
[1]; 3 h
  Paw Edema Inhibition in Percent: 55.23 ± 0.73%
[1]; 4 h
  Paw Edema Inhibition in Percent: 56.22 ± 1.34%
[1]; 5 h
  Paw Edema Inhibition in Percent: 57.57 ± 1.23%

## CC(c1cc2ccccc2s1)N(O)C(N)=O (stereo not drawn) [Zileuton, zileuton, reference compound]
5-LOX
  inhibition at 62.5 µg/mL: 74%
  inhibition at 125 µg/mL: 78%
  inhibition at 250 µg/mL: 81%
  inhibition at 500 µg/mL: 85%
  inhibition at 1000 µg/mL: 94%
